Counter-ions that a name gives are not always drawn. Like-named read-outs stand apart in the source and are kept apart here. Marks after values point to notes of the source that are not given here.
Key:
[1] = Metabolites of DCDQ identified in rats by LC/MS analysis (Table 18); type: in vivo, Sprague-Dawley rats; settings: P = plasma, U = urine, B = brain, F = feces
Procedure: An Agilent Model 1100 HPLC system (Agilent Technologies, Wilmington, Del.) including an autosampler and diode array UV detector was used for LC/MS analysis of plasma and urine samples. The UV detector was set to monitor 200 to 400 nm. For selected LC/MS analyses, radiochromatograms were acquired using a β-Ram model 3 radioactivity flow detector (IN/US Systems Inc., Tampa, Fla.) equipped with a solid scintillant flow cell. Fecal samples were also analyzed using a Waters Alliance model 2690 HPLC system. It was equipped with a built-in autosampler and a model 996 diode array UV detector set to 210-350 nm. The HPLC flow was split between a Radiomatic model 150TR flow scintillation analyzer (Perkin Elmer) and the mass spectrometer. Other HPLC conditions were the same as condition B described above.
The mass spectrometer used for metabolite characterization for plasma and urine was a Micromass Q-TOF-2 quadrupole time-of-flight hybrid mass spectrometer (Waters). The mass spectrometer was equipped with an electrospray ionization (ESI) interface and operated in the positive ionization mode. Collision energy settings of 5 and 30 eV were used for full MS and MS/MS scans, respectively. Settings for the mass spectrometer are listed below.
A Micromass Quattro Micro mass spectrometer (Waters) was also used to analyze the fecal samples. It was equipped with an electrospray ionization (ESI) interface and operated in the positive ionization mode. Settings for the mass spectrometer are listed below.
LC/MS/MS in the selected reaction-monitoring (SRM) mode (LC/SRM) was conducted with the triple quadruple mass spectrometer to monitor DCDQ and its metabolites in fecal samples. The transitions monitored are listed below.

[2] = Rat plasma metabolite profiles after single oral 5 mg/kg [14C]DCDQ; type: in vivo, Sprague-Dawley rats; settings: for concentration at 2 h / concentration at 8 h / concentration at 4 h: Sprague-Dawley, rat, plasma, mean n = 3, read-out: Estimated plasma concentration in rats; for Chromatographic distribution of radioactivity in rat plasma / Estimated plasma concentration in rats: mean n = 3
Procedure: Plasma samples were analyzed for metabolite profiles by HPLC. Aliquots of 1.5 mL plasma were mixed with 3.0 mL methanol, placed on ice for about 10 minutes, and then centrifuged. The supernatant was transferred to a clean tube. The protein pellets were extracted once with 3.0 mL methanol. The supernatants from precipitation and extraction of each sample were pooled, mixed, and evaporated at 22° C. under nitrogen in a Zymark TurboVap LV (Caliper Life Sciences, Hopkinton, Mass.) to about 0.3 mL. The concentrated extract was centrifuged, the supernatant volume measured and extraction efficiency was determined by analyzing duplicate 10 μL aliquots for radioactivity. An aliquot of the supernatant (50-200 μL) was analyzed by HPLC with radioactivity flow detection. Plasma extracts were also analyzed by LC/MS.
(§1) A Waters model 2690 HPLC system (Waters Corp., Milford, Mass.) with a built-in autosampler was used for analysis. Separations were accomplished on a Phenomenex Luna C18(2) column (150×2.0 mm, 5 μm) (Phenomenex, Torrance, Calif.). The sample chamber of the autosampler was maintained at 4° C., while the column was at ambient temperature of about 20° C. A variable wavelength UV detector set to monitor 250 nm and a Flo-One β Model A525 radioactivity detector described above were used for data acquisition. The HPLC mobile phase consisted of 10 mM ammonium acetate, pH 4.5 (A) and methanol (B), and was delivered at 0.2 mL/min. Chromatographic condition A was used for dose analysis, while condition B was used for analysis of urine and plasma, brain and fecal extracts.

[3] = Rat urinary excretion and metabolite profiles after single oral 5 mg/kg [14C]DCDQ; type: in vivo, Sprague-Dawley rats; settings: oral 5 mg/kg, mean n = 3
Procedure: (§2) At sacrifice, blood samples were collected by cardiac puncture into tubes containing EDTA as the anticoagulant and placing them on ice. Aliquots of 50 μL were removed for combustion and determination of radioactivity content. Plasma was immediately obtained from the remaining blood by centrifugation at 4° C. Brains were excised after perfusion with 50 mL of chilled sterile saline. Urine samples were collected on dry ice at intervals of 0-8 and 8-24 hour post-dosing. Feces were collected at intervals of 0-8 and 8-24 hr post-dosing at room temperature and were homogenized as described previously. The biological specimens and aliquots of the dosing solution at pre- and post-dose were stored at approximately −70° C. until analyzed.
Plasma (20 μL) and urine (50 μL) aliquots were analyzed for radioactivity concentrations. Radioactivity determinations of dose, plasma and urine were made with a Tri-Carb Model 3100 TR/LL liquid scintillation counter (LSC) (Perkin Elmer) using 10 mL of Ultima Gold as the scintillation fluid.
Urine was analyzed for radioactivity concentration as and analyzed for metabolite profiles by direct injection onto the HPLC column. LC/MS analyses for metabolite identification were also carried out with urine samples.
as §1

[4] = Rat fecal excretion and metabolite profiles after single oral 5 mg/kg [14C]DCDQ; type: in vivo, Sprague-Dawley rats; settings: male rats, 8-24 hour fecal extracts
Procedure: as §2
Brain and fecal samples were weighed and homogenized in water at volume-to-weight ratios of about 1:1 and 5:1, respectively. Blood aliquots (50 μL), brain homogenates (0.1 gram) and fecal homogenates (0.2 gram) were placed on Combusto-cones with Combusto-pads and combusted. A model 307 Tri-Carb Sample Oxidizer, equipped with an Oximate-80 Robotic Automatic Sampler (Perkin Elmer), was used for combustion. The liberated ^14CO2 was trapped with Carbo-Sorb E carbon dioxide absorber, mixed with PermaFluor® E+ liquid scintillation cocktail, and counted in a Tri-Carb Model 3100 TR/LL liquid scintillation counter (Perkin Elmer). The oxidation efficiency of the oxidizer was 98.2%.
(§3) Fecal homogenates were analyzed for metabolite profiles. Aliquots of 1 gram of fecal homogenates were mixed with 2 mL methanol, placed on ice for about 10 minutes and centrifuged. The supernatant was transferred to a clean tube. The residue was extracted three times with 2 mL of a water:methanol (3:7) mixture. The supernatants of each sample were combined, evaporated to about 1 mL, and centrifuged. Extraction efficiency was determined by analyzing aliquots of 10 μL of the supernatant for radioactivity. An aliquot (50-200 μL) of the supernatant was analyzed by HPLC with radioactivity flow detection for profiling. Samples were also analyzed by LC/MS to characterize the radioactive peaks.
as §1, with “Chromatographic condition A was used for dose analysis, while condition B was used for analysis of urine and plasma, brain and fecal extracts.” left out

[5] = Dog fecal excretion and metabolite profiles after oral capsule of [14C]DCDQ; type: in vivo, beagle dogs
Procedure: Blood samples were collected from the jugular vein at 2, 4, 8, 24 and 48 hour after dose administration into tubes containing potassium EDTA as the anticoagulant and then placed on ice. Aliquots of 50 μL were removed for combustion and determination of radioactivity content. Plasma was immediately obtained from the remaining blood by centrifugation at 4° C. Urine samples were collected into tubes on dry ice at intervals of 0-8, 8-24 and 24-48 hour post-dose. Fecal samples were collected at intervals of 0-8, 8-24 and 24-48 hour post-dose at room temperature, and were homogenized. The biological specimens were stored at approximately −70° C. until analysis.
Feces were weighed and homogenized in water at a volume-to-weight ratio of about 5:1. Aliquots of blood (200 μL) and fecal homogenates (0.25-0.53 gram) were placed on Combusto-cones with Combusto-pads and combusted. A model 307 Tri-Carb sample oxidizer, equipped with an Oximate-80 robotic automatic sampler (Perkin Elmer), was used for combustion of blood and fecal samples. The liberated ^14CO2 was trapped with Carbo-Sorb E carbon dioxide absorber, mixed with PermaFluor® E+ liquid scintillation cocktail, and counted on a Tri-Carb Model 3100 TR/LL liquid scintillation counter (Perkin Elmer). The efficiency of combustion was 98.9%.
as §3, with “fecal homogenate” for “fecal homogenates”, “supernatants from” for “supernatants of”, “for metabolite profiles.” for “for profiling.”
as §1, with “detector” for “detector described above”, “acetonitrile” for “methanol”

Matrix [1] | concentration at 2 h ([2]; female, 2 hr) | concentration at 8 h ([2]; female, 8 hr) | concentration at 2 h ([2]; male, 2 hr) | concentration at 4 h ([2]; male, 4 hr) | concentration at 8 h ([2]; male, 8 hr) | Chromatographic distribution of radioactivity in rat plasma ([2]; female, 2 hr) | Chromatographic distribution of radioactivity in rat plasma ([2]; female, 8 hr) | Chromatographic distribution of radioactivity in rat plasma ([2]; male, 2 hr) | Chromatographic distribution of radioactivity in rat plasma ([2]; male, 4 hr) | Chromatographic distribution of radioactivity in rat plasma ([2]; male, 8 hr) | Estimated plasma concentration in rats ([2]; male, 2 hr) | Estimated plasma concentration in rats ([2]; male, 4 hr) | Estimated plasma concentration in rats ([2]; male, 8 hr) | Compound | further results
– | 16.6 ng/mL | 5.62 ng/mL | 11.6 ng/mL | 14.2 ng/mL | 6.33 ng/mL | 2.6% | 1.6% | 1.9% | 2.2% | 1.4% | – | – | – | O=S(=O)(O)OC1CC[C@@H]2c3cccc4c3N(CCNC4)CC12 (some centres unmarked) [Metabolite M13, 17-hydroxy DCDQ sulfate] | –
P, U | 25.1 ng/mL | 16.5 ng/mL | – | – | – | 4.0^d % | 4.9^d % | BQL | BQL | BQL | BQL | BQL) | BQL | O=S(=O)(O)N1CCN2CC3=CCC=C3c3cccc(c32)C1 [Metabolite M14, di-dehydro DCDQ sulfamate] | –

The remaining lines, values behind:

Compound | Matrix [1] | concentration at 2 h ([2]; female, 2 hr) | concentration at 8 h ([2]; female, 8 hr) | concentration at 2 h ([2]; male, 2 hr) | concentration at 4 h ([2]; male, 4 hr) | concentration at 8 h ([2]; male, 8 hr) | Chromatographic distribution of radioactivity in rat plasma ([2]; female, 2 hr) | Chromatographic distribution of radioactivity in rat plasma ([2]; female, 8 hr) | Chromatographic distribution of radioactivity in rat plasma ([2]; male, 2 hr) | Chromatographic distribution of radioactivity in rat plasma ([2]; male, 4 hr) | Chromatographic distribution of radioactivity in rat plasma ([2]; male, 8 hr) | Estimated plasma concentration in rats ([2]; male, 2 hr) | Estimated plasma concentration in rats ([2]; male, 4 hr) | Estimated plasma concentration in rats ([2]; male, 8 hr) | further results
OC1CNCc2cccc3c2N1C[C@@H]1CCC[C@H]31 (some centres unmarked) [Metabolite M10, hydroxy DCDQ] | U, B, F | 35.2 ng/mL | 18.9 ng/mL | 23.7 ng/mL | 9.81 ng/mL | 13.2 ng/mL | 5.2% | 5.6% | 3.6% | 1.5% | 3.0% | – | – | – | Chromatographic distribution of radioactivity in male rat urine ([3]; 0-8 hr): 3.32%; Percentage of dose for urinary metabolites in rats ([3]; 0-8 hr): 1.08%; Percentage of dose for urinary metabolites in rats ([3]; 0-24 hr): 1.99%; Chromatographic distribution of radioactivity in male rat urine ([3]; 8-24 hr): 2.70%; Percentage of dose for urinary metabolites in rats ([3]; 8-24 hr): 0.91%
CC(=O)N1Cc2cccc3c2N(C[C@@H]2CCC[C@H]32)C(O)C1 (some centres unmarked) [Metabolite M11, acetylated hydroxy DCDQ] | P, B, F | 41 ng/mL | 16.6 ng/mL | 37.2 ng/mL | 34.5 ng/mL | 16.3 ng/mL | 6.1% | 4.9% | 6.0% | 5.2% | 3.6% | – | – | – | relative abundance in fecal extracts [4]: major metabolites
O=S(=O)(O)N1CCN2C[C@@H]3CCC[C@@H]3c3cccc(c32)C1 [Metabolite M12, DCDQ sulfamate] | P, U | 33.8 ng/mL | 11.8 ng/mL | – | – | – | 5.2^e % | 3.3% | BQL^c | BQL | BQL | BQL^c | BQL | BQL | –
O=C1NCCN2C[C@@H]3CCC[C@@H]3c3cccc1c32 [Metabolite M18, keto DCDQ] | – | – | – | – | – | – | – | – | – | – | – | – | – | – | % of total radioactivity in fecal extracts [5]: up to 16.4%; metabolite detected in feces [5]: detected
